Test system: Bovine cardiac myofibrils
Experiment: In vitro model of dose-dependent myofibril ATPase modulation (AC1.4, pyruvate kinase/lactate dehydrogenase-coupled ATPase assay at pCa25)
Assay type: biochemical
Conditions: concentration at which ATPase activity was 1.4-fold higher than the bottom of the dose curve, mean of a minimum of two independent tests
Experimental: In vitro Model of Dose-Dependent Myofibril ATPase Modulation: Dose responses were measured using a calcium-buffered, pyruvate kinase and lactate dehydrogenase-coupled ATPase assay containing the following reagents (concentrations expressed are final assay concentrations): Potassium PIPES (12 mM), MgCl2 (2 mM), ATP (1 mM), DTT (1 mM), BSA (0.1 mg/mi), NADH (0.5 mM), PEP (1.5 mM), pyruvate kinase (4 U/ml), lactate dehydrogenase (8 U/ml), and antifoam (90 ppm). The pH was adjusted to 6.80 at 22° C. by addition of potassium hydroxide.
Bovine cardiac myofibrils were obtained by homogenizing the appropriate tissue in the presence of detergent. Such treatment removes membranes and majority of soluble cytoplasmic proteins but leaves intact cardiac sarcomeric acto-myosin apparatus. Concentrations of myofibrils were adjusted to achieve the necessary rate of ATP hydrolysis (typically 0.25-1.0 mg/ml).
Assays were performed by first preparing a dilution series of test chemical entity, each with an assay mixture containing potassium Pipes, MgCl2, BSA, DTT, pyruvate kinase, lactate dehydrogenase, myofibrils, antifoam, EGTA, CaCl2, and water. The assay was started by adding an equal volume of solution containing potassium Pipes, MgCl2, BSA, DTT, ATP, NADH, PEP, antifoam, and water. ATP hydrolysis was monitored by absorbance at 340 nm. The resulting dose response curve was fit by the 4 parameter equation y=Bottom+((Top−Bottom)/(1+((EC50/X)^Hill))). […] AC1.4 values reported in the table below are mean values based on a minimum of two independent tests.

SMILES | AC1.4 [µM]
CS(=O)(=O)c1cccc(C(=O)N2C[C@@H](F)C[C@@H]2C(=O)N[C@@H](c2ccc(C(F)(F)F)c(F)c2)C2COC2)c1 [Example 273, (4S)-4-fluoro-N-((R)-(3-fluoro-4-(trifluoromethyl)phenyl)(3-oxetanyl)methyl)-1-(3-(methylsulfonyl)benzoyl)-D-prolinamide] | 0.6841
CS(=O)(=O)c1ccc(NC2CCC2)c(C(=O)N2CCC[C@@H]2C(=O)N[C@@H](c2ccc(C(F)(F)F)cc2F)C2CC2)c1 [Example 44, 1-(2-(cyclobutylamino)-5-(methylsulfonyl)benzoyl)-N-((R)-cyclopropyl(2-fluoro-4-(trifluoromethyl)phenyl)methyl)-D-prolinamide] | 0.0434
N#CC1CN(S(=O)(=O)c2cccc(C(=O)N3CCc4ccccc4C3C(=O)NCc3ccc(C(F)(F)F)cc3)c2)C1 (stereo not drawn) [Example 324, 2-(3-((3-cyanoazetidin-1-yl)sulfonyl)benzoyl)-N-(4-(trifluoromethyl)benzyl)-1,2,3,4-tetrahydroisoquinoline-1-carboxamide] | 0.8782
C[C@@H](NC(=O)[C@H]1CCCN1C(=O)[C@@H]1CN(S(=O)(=O)N2CC(C#N)C2)CCO1)c1ccc(Cl)cc1 [Example 291, N-((1R)-1-(4-chlorophenyl)ethyl)-1-(((2S)-4-((3-cyano-1-azetidinyl)sulfonyl)-2-morpholinyl)carbonyl)-D-prolinamide] | 0.756
N#CC1CN(S(=O)(=O)c2cccc(C(=O)N3CCC[C@@H]3C(=O)N[C@H](CC3CC3)c3ccc(C(F)(F)F)cc3)c2)C1 [Example 1, 1-(3-((3-cyano-1-azetidinyl)sulfonyl)benzoyl)-N-((1R)-2-cyclopropyl-1-(4-(trifluoromethyl)phenyl)ethyl)-D-prolinamide] | 0.01405
C[C@@H](NC(=O)[C@H]1CCCN1C(=O)[C@H]1CCCN(S(=O)(=O)N2CC(C#N)C2)C1)c1ccc(C(F)F)cc1F [Example 104, 1-(((3S)-1-((3-cyano-1-azetidinyl)sulfonyl)-3-piperidinyl)carbonyl)-N-((1R)-1-(4-(difluoromethyl)-2-fluorophenyl)ethyl)-D-prolinamide] | 0.1611
C[C@H](C(=O)N[C@H](C)c1ccc(C(F)(F)F)cc1F)N(C)C(=O)[C@@H]1CN(S(=O)(=O)N2CC(C#N)C2)CCO1 [Example 299, (2S)-4-((3-cyano-1-azetidinyl)sulfonyl)-N-((2R)-1-(((1R)-1-(2-fluoro-4-(trifluoromethyl)phenyl)ethyl)amino)-1-oxo-2-propanyl)-N-methyl-2-morpholinecarboxamide] | 0.7923
N#CC1CN(S(=O)(=O)N2CCC[C@H](C(=O)N3CC(F)(F)C[C@@H]3C(=O)NCc3ccc(C(F)(F)F)cc3)C2)C1 [Example 25, 1-(((3S)-1-((3-cyano-1-azetidinyl)sulfonyl)-3-piperidinyl)carbonyl)-4,4-difluoro-N-(4-(trifluoromethyl)benzyl)-D-prolinamide] | 0.0289
N#CC1CN(S(=O)(=O)N2CCC[C@H](C(=O)N3C[C@@H](F)C[C@@H]3C(=O)NCc3ccc(C(F)(F)F)cc3)C2)C1 [Example 56, (4S)-1-(((3S)-1-((3-cyano-1-azetidinyl)sulfonyl)-3-piperidinyl)carbonyl)-4-fluoro-N-(4-(trifluoromethyl)benzyl)-D-prolinamide] | 0.06215
CS(=O)(=O)c1cccc(C(=O)N2[C@@H](C(=O)N[C@@H](c3ccc(C(F)(F)F)cc3F)C3CCC3)C[C@H]3C[C@H]32)c1 [Example 161, (1R,3R,5R)-N-((R)-cyclobutyl(2-fluoro-4-(trifluoromethyl)phenyl)methyl)-2-(3-(methylsulfonyl)benzoyl)-2-azabicyclo[3.1.0]hexane-3-carboxamide] | 0.2746
C[C@@H](NC(=O)[C@H]1COCCN1C(=O)[C@H]1CCCN(S(=O)(=O)N2CC(C#N)C2)C1)c1ccc(C(F)(F)F)cc1F [Example 54, (3R)-4-(((3S)-1-((3-cyano-1-azetidinyl)sulfonyl)-3-piperidinyl)carbonyl)-N-((1R)-1-(2-fluoro-4-(trifluoromethyl)phenyl)ethyl)-3-morpholinecarboxamide] | 0.0583

Next, values leading:

AC1.4 [µM] | SMILES
6.2625 | O=C(N[C@@H](c1ccc(C(F)(F)F)cc1F)C1COC1)[C@H]1C[C@H]2C[C@H]2N1C(=O)c1cc(C2CC2)ccn1 [Example 718, (1R,3R,5R)-2-((4-cyclopropyl-2-pyridinyl)carbonyl)-N-((R)-(2-fluoro-4-(trifluoromethyl)phenyl)(3-oxetanyl)methyl)-2-azabicyclo[3.1.0]hexane-3-carboxamide]
9.7525 | CCC(NC(=O)[C@H]1CCCN1C(=O)[C@H]1CCCN(S(=O)(=O)N2CC(C#N)C2)C1)c1ccccc1OC (stereo partly drawn) [Example 804, (2R)-1-((S)-1-((3-cyanoazetidin-1-yl)sulfonyl)piperidine-3-carbonyl)-N-(1-(2-methoxyphenyl)propyl)pyrrolidine-2-carboxamide]
1.5865 | N#CC1CN(S(=O)(=O)N2CCC[C@H](C(=O)N3C[C@@H](F)C[C@@H]3C(=O)NCc3cccc(C(F)(F)F)c3)C2)C1 [Example 427, (4S)-1-(((3S)-1-((3-cyano-1-azetidinyl)sulfonyl)-3-piperidinyl)carbonyl)-4-fluoro-N-(3-(trifluoromethyl)benzyl)-D-prolinamide]
6.2628 | N#CC1CN(S(=O)(=O)N2CCC[C@H](C(=O)N3CCC[C@@H]3C(=O)NCc3c(F)cccc3Cl)C2)C1 [Example 719, N-(2-chloro-6-fluorobenzyl)-1-(((3S)-1-((3-cyano-1-azetidinyl)sulfonyl)-3-piperidinyl)carbonyl)-D-prolinamide]
3.6113 | Cc1ccnc(C(=O)N2[C@@H](C(=O)N[C@@H](c3cc(F)c(Cl)cc3F)C3COC3)C[C@H]3C[C@H]32)c1 [Example 600, (1R,3R,5R)-N-((R)-(4-chloro-2,5-difluorophenyl)(3-oxetanyl)methyl)-2-((4-methyl-2-pyridinyl)carbonyl)-2-azabicyclo[3.1.0]hexane-3-carboxamide]
7.453 | O=C(NC1CN(S(=O)(=O)N2CCC[C@H](C(=O)N3CCC[C@@H]3C(=O)NCc3ccc(C(F)(F)F)cc3)C2)C1)C1CCC1 [Example 754, 1-(((3S)-1-((3-((cyclobutylcarbonyl)amino)-1-azetidinyl)sulfonyl)-3-piperidinyl)carbonyl)-N-(4-(trifluoromethyl)benzyl)-D-prolinamide]
3.5165 | C[C@@H](NC(=O)[C@H]1CCCN1C(=O)c1cccc(S(=O)(=O)N2CC3(CC3)C2)c1)c1ccc(Cl)cc1 [Example 595, 1-((3-(5-azaspiro[2.3]hex-5-ylsulfonyl)phenyl)carbonyl)-N-((1R)-1-(4-chlorophenyl)ethyl)-D-prolinamide]
6.7885 | CS(=O)(=O)c1cccc(C(=O)N2CC[C@H]2C(=O)N[C@@H](c2cc(F)c(Cl)cc2F)C2CC2)c1 [Example 732, (2S)-N-((R)-(4-chloro-2,5-difluorophenyl)(cyclopropyl)methyl)-1-(3-(methylsulfonyl)benzoyl)-2-azetidinecarboxamide]
3.929 | CS(=O)(=O)c1cccc(C(=O)N2C[C@H](F)C[C@@H]2C(=O)N[C@@H](c2ccc(C(F)(F)F)cc2F)C2CC2)c1 [Example 619, (4R)-N-((R)-cyclopropyl(2-fluoro-4-(trifluoromethyl)phenyl)methyl)-4-fluoro-1-(3-(methylsulfonyl)benzoyl)-D-prolinamide]
1.5655 | CS(=O)(=O)N1CC(F)(c2cccc(C(=O)N3[C@@H](C(=O)N[C@@H](c4ccc(C(F)(F)F)cc4F)C4CC4)C[C@H]4C[C@H]43)c2)C1 [Example 422, (1R,3R,5R)-N-((R)-cyclopropyl(2-fluoro-4-(trifluoromethyl)phenyl)methyl)-2-(3-(3-fluoro-1-(methylsulfonyl)-3-azetidinyl)benzoyl)-2-azabicyclo[3.1.0]hexane-3-carboxamide]
2.5883 | NC(=O)C1(c2cccc(C(=O)N3CCC[C@@H]3C(=O)N[C@@H](c3ccc(C(F)(F)F)cc3F)C3CC3)c2)CC1 [Example 533, 1-(3-(1-carbamoylcyclopropyl)benzoyl)-N-((R)-cyclopropyl(2-fluoro-4-(trifluoromethyl)phenyl)methyl)-D-prolinamide]
2.252 | CS(=O)(=O)c1cncc(C(=O)N2C[C@H]3C[C@H]3[C@@H]2C(=O)N[C@@H](c2cc(F)c(Cl)cc2F)C2CC2)c1 [Example 512, (1R,2R,5S)-N-((R)-(4-chloro-2,5-difluorophenyl)(cyclopropyl)methyl)-3-((5-(methylsulfonyl)-3-pyridinyl)carbonyl)-3-azabicyclo[3.1.0]hexane-2-carboxamide]
5.0333 | O=C(N[C@@H](c1ccc(C(F)(F)F)cc1F)C1CC1)[C@H]1C[C@H]2C[C@H]2N1C(=O)c1cncc(C(F)(F)F)c1 [Example 680, (1R,3R,5R)-N-((R)-cyclopropyl(2-fluoro-4-(trifluoromethyl)phenyl)methyl)-2-((5-(trifluoromethyl)-3-pyridinyl)carbonyl)-2-azabicyclo[3.1.0]hexane-3-carboxamide]
